Reference: ChEMBL document CHEMBL1126248, “Synthesis and enzymatic activity of some new purine ring system analogues of adenosine 3',5'-cyclic monophosphate” (J Med Chem, 1992)

Legend:
[1] = molecular target: cAMP-dependent protein kinase A (Bos taurus) (UniProt P00517+P05131+P31322+P00515)
Description: Activation of cAMP-dependent protein kinase type II

Description for Oryctolagus cuniculus: Activation of cAMP-dependent protein kinase type I

| SMILES | K'a (Oryctolagus cuniculus) | K'a [1] |
| --- | --- | --- |
| Nc1cccc2c1ncn2[C@@H]1O[C@@H]2COP(=O)(O)O[C@H]2[C@H]1O | 0.2 | 0.67 |
| O=P1(O)OC[C@H]2O[C@@H](n3cc4ccccc4n3)[C@H](O)[C@@H]2O1 | 0.14 | 1.4 |
| Nc1cccc2c1cnn2[C@H]1O[C@@H]2COP(=O)(O)O[C@H]2[C@H]1O | 0.65 | 0.54 |
| O=[N+]([O-])c1cccc2c1ncn2[C@@H]1O[C@@H]2COP(=O)(O)O[C@H]2[C@H]1O | 0.08 | 1.56 |
| O=[N+]([O-])c1cccc2c1cnn2[C@@H]1O[C@@H]2COP(=O)(O)O[C@H]2[C@H]1O | 1.17 | 2.5 |
| O=P1(O)OC[C@H]2O[C@@H](n3nnc4ccccc43)[C@H](O)[C@@H]2O1 (stereo in doubt; 14) | 0.64 | 0.88 |
| O=P1(O)OC[C@H]2O[C@@H](n3ncc4ccccc43)[C@H](O)[C@@H]2O1 | 0.014 | 0.048 |
| O=P1(O)OC[C@H]2O[C@@H](n3nc4ccccc4n3)[C@H](O)[C@@H]2O1 | 0.82 | 3.5 |
| Nc1cccc2c1nnn2[C@@H]1O[C@@H]2COP(=O)(O)O[C@H]2[C@H]1O | 0.88 | 0.93 |
| O=[N+]([O-])c1cccc2c1nnn2[C@@H]1O[C@@H]2COP(=O)(O)O[C@H]2[C@H]1O | 0.88 | 1 |
| O=P1(O)OC[C@H]2O[C@@H](n3nnc4ccccc43)[C@H](O)[C@@H]2O1 (stereo in doubt) | 0.25 | 0.7 |
